How the values were obtained:
[1] = Chelation study by ESI-MS, Fe^3+ solution; assay type: binding; conditions: 10:1 metal:compound, 45 minutes of mixing
Experimental: (§1) The relative amount of ions bound by JHX-1-JHX-8 was determined by electrospray ionization mass spectrometry (ESI-MS) according to the method of Baron and Hering (Baron and Hering (1998) Spectrometry J. Environ. Qual., 27:844-850). In this method solutions containing Fe^2+, Fe^3+, Cu^1+, Cu^2+, Zn^2+, Ca^2+, Mg^2+ were mixed with compound in ratios of 10:1, 1:1, and 1:10. After 45 minutes of mixing, each solution was directly infused into the MS with constant ionization energy and the relative decreases of the parent peaks in these solutions were determined. […] FIG. 3 illustrates ion binding with increased Fe^+2 concentrations results in decreased compound parent peak heights by ESI-MS when compounds contain appropriate functional groups for metal ion chelation.

[2] = Chelation study by ESI-MS, Cu^1+ solution; assay type: binding; conditions: 10:1 metal:compound, 45 minutes of mixing
Experimental: as §1

[3] = Tissue drug levels in diabetic rats after 47 days of feeding; assay type: in vivo, Sprague Dawley rats
Experimental: To determine whether JHX-4 and JHX-8 can reach the target tissues of lens, retina and brain after oral administration, two groups of 4 young (100 g) Sprague Dawley rats were administered rat chow containing 0.05% of either drug for 6 days. […] Lens and posterior segments were homogenized in glass homogenizers in ice-cold PBS, pH 7.4, after addition of an aliquot of JHX-1 as an internal standard. The homogenates were deproteinized with 48 mM NaF and centrifuged. The supernatant was extracted with acetone. The acetone extract was evaporated under vacuum and the residue was dissolved in acetonitrile. Whole brains were similarly extracted; however, brain homogenates were deproteinized with equal amounts of 0.3 N Na2SO4 and 0.3 N Ba(OH)2. Drug levels were measured by reverse-phase HPLC with a Phenomenex LUNA 5 μm C18 column and an isocratic elution of 1:1 MeOH:Water. Detection was conducted at 245 nm and compound levels were quantified using standard curves. Lens and retinal drug levels were 200±11 and 1373±38 ng/mg protein for JHX-4 and 90±5 and 1060±12 ng/mg protein for JHX-8 respectively. Only trace amounts of either compound were detected in the brain.
Diabetes was induced in 100 g Sprague Dawley rats with streptozotocin injection (75 mg/kg) and all rats with blood sugar levels >300 mg/dL were divided into 4 groups of 8 rats each. One group received only standard rat chow (untreated diabetic) while each of the other groups received chow containing either 0.0125% ARI Al1576, 0.025% JHX-4 or 0.025% JHX-8. Lens changes were monitored by at 3-5 day intervals by slit lamp following tropicamide mydriasis. As summarized in FIGS. 8A-8C, vacuole formation began by 14 days in the untreated diabetic group with cortical opacities observed by 29 days and mature cataracts by 44 days. […] In the two antioxidant treated groups, vacuole formation was delayed by 19 and 11 days by JHX-4 and JHX-8, respectively, and cortical cataracts by 9 and 3 days, respectively. At the end of the study (47 days) all rats were equally diabetic with HbA1C levels >11.9%. All eyes were enucleated and lens sorbitol levels were measured as previously described (Kador et al. (2007) J. Ocul. Pharmacol. Ther., 23:116-23). […] Tissue levels of JHX-4 and -8 in the lens, neural retina and brain were determined after 47 days of feeding as described above (FIG. 10). […] Overall drug levels in both the lens and retina were ca. 3-fold higher in the diabetic rats with brain levels also now present. This increase may be due to either an accumulation of drug, or increased permeability of tissues and the BBB to drug in streptozotocin diabetic rats (Mooradian et al. (2005) Diabetes, 54:2977-82).

[4] = tested on: SRA-1 human lens epithelium cell line; assay: MTS cell viability assay; assay type: cell-based; conditions: 1.0 mM H2O2, 2 hours, 1 mM compound
Experimental: The SRA-1 human lens epithelium cell line (Ibaraki et al. (1998) Exp. Eye Res., 67:577-85) was used to evaluate the antioxidant activity of JHX-1-8. […] The cells were passaged when 80-90% confluent by treatment with trypsin-EDTA. The cells were plated at a density of 1×10^4 cells onto 96-well plates or 1×10^6 cells onto 100-mm dishes. ROS levels/effects in cells treated with JHX-1-8 were compared to similar cells treated with the water soluble Vitamin E derivative, Trolox (antioxidant control) or no drug (control). […] Cells were cultured in 96-well plates and exposed for 2 hours to media containing 1.0 mM H2O2 (FIG. 5A) or Fenton reagents (1.0 mM H2O2 and 1.0 mM Fe^2+, FIG. 5B) with/without 1 mM JHX-1-8 or Trolox. Viability was measured as the absorbance of MTS stain at 490 nm 1 hour after the addition of 20 μL of […] AQueous One Solution Cell Proliferation Assay to each well. The results were normalized to blank control (100%) since absorbance is directly proportional to the living cell population.

[5] = Chelation studies by ESI-MS, overall statement on ion binding; conditions: binding order Cu^1+=Cu^2+>Fe^2+=Fe^3+>Zn^2+; no binding with Ca^2+ or Mg^2+
Experimental: as §1

[6] = tested on: lens opacities after whole head irradiation; assay type: in vivo; conditions: for appearance of lens opacities / delay of lens PSC opacities / delay of the average (50% in all animals) formation of PSC punctuate opacities: 15 Gy whole head irradiation; for delay of lens PSC opacities / delay of the average (50% in all animals) formation of PSC punctuate opacities: compared to untreated rats, JHX 0.025 wt % in chow, Pantethine 1 g/kg i.p.; for toxic effects: irradiated rats
Description: Cataracts were induced by whole head gamma irradiation in 24 male Long Evans (150-200 g) rats. […] Because of the amount of drug required for this long-term study, the percentage of JHX-4 and JHX-8 utilized was ½ of the dose used in the diabetic study. […] Gamma radiation (6000 Curie Cobalt-60 Source, UNMC Experimental Radiation Facility) was delivered to the whole head of unanesthetized, restrained rats at a dose rate of dose 0.341 Gy/minute for a total dose of 15 Gy. Lens changes were monitored every 7 days by portable slit lamp and recorded on a scale from 0-6 with 0: Clear, 1: Posterior subcapsular haze, 2: Spokes, suture enhancement and powdery posterior subcapsular deposits, 3: Prominent posterior subcapsular punctate opacities with spokes and suture enhancement, 4: Posterior subcapsular opacity blocks appearance of retinal vessels, 5: Start cortical involvement, 6: Total lens opacity, visible with naked eye. Since whole head irradiation results in a temporary loss of salivary gland function, all rats received Nutra-Gel (Bio-Serv) with/without JHX-4 or -8 for the first 66 days. Subsequently, all rats received standard rat chow with/without JHX-4 or -8.

| Compound | % Parent Peak Remaining at 10:1 Solution of Metal:Compound [1] [%] | % Parent Peak Remaining at 10:1 Solution of Metal:Compound [2] [%] | brain levels of drug [3] | drug levels in both the lens and retina, diabetic rats versus normal rats [3] | protection against H2O2 induced loss of cell viability [4] | ion binding [5] | appearance of lens opacities [6] | delay of lens PSC opacities [6] [days] | delay of the average (50% in all animals) formation of PSC punctuate opacities [6] [days] | toxic effects [6] |
| --- | --- | --- | --- | --- | --- | --- | --- | --- | --- | --- |
| CN(C)S(=O)(=O)N1C(=O)CN(c2ncc(O)cn2)CC1=O [JHX-4, 1-N,N′-dimethylsulfamoyl-4-(5-hydroxy-2-pyrimidyl)piperazine-2,6-dione] | 8.2 | 4.2 | now present | ca. 3 fold | protecting against H2O2 induced loss of cell viability | bind ions | delayed | 38 | 53 | No apparent toxic effects |
| COc1nc(N2CC(=O)N(S(=O)(=O)N(C)C)C(=O)C2)nc(OC)c1O [JHX-8, 1-N,N′-dimethylsulfamoyl-4-(4,6-dimethoxy-5-hydroxy-2-pyrimidyl)piperazine-2,6-dione] | 8.2 | 4.0 | now present | ca. 3 fold | protecting against H2O2 induced loss of cell viability | bind ions | delayed | 47 | 58 | No apparent toxic effects |
